Test results from patent US4767778A (Institut National de la Sante et de la Recherche Medicale …, priority 1985, dated 1988).
Read-outs that look alike come from different tables or passages of the source.

Assays:
H3 autoreceptors [1] = molecular target: T1, H3 autoreceptors (Rattus norvegicus, UniProt Q9QYN8)
H1 /H2 receptors = details: histamine = 100%; cited from earlier work
H3 receptors [2] = experiment: Inhibition of synthesis of histamine in slices of human cerebral cortex and posterior hypothalamus; type: cell-based; details: slices of human cerebral cortex and posterior hypothalamus (mamillary)
H3 receptors [3] = experiment: Inhibition of the synthesis of (3H) histamine in rats in vivo; parameters: species or system rat; details: for (3) histamine (% of the total radioactivity × 10^-3), Treated: 10 minutes
H3 autoreceptors [4] = molecular target: T1, H3 autoreceptors; details: slices of rat brain

T1 sequence (Q9QYN8 whole entry): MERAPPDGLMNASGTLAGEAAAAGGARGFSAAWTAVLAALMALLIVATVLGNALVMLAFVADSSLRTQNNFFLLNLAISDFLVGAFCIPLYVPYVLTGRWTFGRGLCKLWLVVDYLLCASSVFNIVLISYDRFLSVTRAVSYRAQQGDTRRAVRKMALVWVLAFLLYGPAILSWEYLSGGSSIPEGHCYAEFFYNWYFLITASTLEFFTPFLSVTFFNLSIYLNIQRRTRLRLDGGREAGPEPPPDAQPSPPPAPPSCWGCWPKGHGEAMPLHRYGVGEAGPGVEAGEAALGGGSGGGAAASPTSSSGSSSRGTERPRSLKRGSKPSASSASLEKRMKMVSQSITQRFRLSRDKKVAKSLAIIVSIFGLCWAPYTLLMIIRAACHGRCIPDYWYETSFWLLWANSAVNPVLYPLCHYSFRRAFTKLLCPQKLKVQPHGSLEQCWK

| EC50 (H3 autoreceptors [1]) [nM] | Activity relative to histamine (%) H3 receptors (H3 autoreceptors [1]; histamine = 100% (EC50 […] nM)) [%] | SMILES | Activity relative to histamine (%) H1 /H2 receptors (H1 /H2 receptors) | also measured |
| --- | --- | --- | --- | --- |
| 20 ± 5 | 120 | CC(CN)c1c[nH]cn1 (racemic) [3 (R, S), 4-(1-methyl 2-aminoethyl)-imidazole] | 2-2% |  |
| 1000 ± 500 | 6 | C[C@](N)(Cc1c[nH]cn1)C(=O)O (racemic) [6 (R, S), α-methylhistidine] | inactive |  |
|  |  | CC(N)Cc1c[nH]cn1 (racemic) [compound 1, 4-(2-aminopropyl)-imidazole] |  | effect on synthesis of histamine (H3 receptors [2]): inhibits |
|  |  | C[C@@H](N)Cc1c[nH]cn1 [1 (R), 4-(2-aminopropyl)-imidazole] |  | effect on the synthesis of (3H) histamine in the brain and peripheral tissues (H3 receptors [3]; 10 mg/kg, simultaneous with (3H)-L-histidine, completely reversed by an H3 antagonist): significantly reduces; (3) histamine (% of the total radioactivity × 10^-3), Treated (H3 receptors [3]; Cerebral cortex, 10 mg/kg i.v. with (3H)-L-histidine, controls 95 ± 6): 53 ± 6 % of the total radioactivity ×; Variation (%) (H3 receptors [3]; Cerebral cortex, 10 mg/kg i.v., p < 0.01): -45%; (3) histamine (% of the total radioactivity × 10^-3), Treated (H3 receptors [3]; Hypothalmus, 10 mg/kg i.v., controls 272 ± 11): 185 ± 32 % of the total radioactivity ×; Variation (%) (H3 receptors [3]; Hypothalmus, 10 mg/kg i.v., p < 0.01): -32%; Variation (%) (H3 receptors [3]; Kidneys, 10 mg/kg i.v., p < 0.05): -30%; (3) histamine (% of the total radioactivity × 10^-3), Treated (H3 receptors [3]; Lungs, 10 mg/kg i.v., controls 138 ± 10): 94 ± 10 % of the total radioactivity ×; Variation (%) (H3 receptors [3]; Lungs, 10 mg/kg i.v., p < 0.05): -32%; (3) histamine (% of the total radioactivity × 10^-3), Treated (H3 receptors [3]; Spleen, 10 mg/kg i.v., controls 60 ± 8): 42 ± 5 % of the total radioactivity ×; Variation (%) (H3 receptors [3]; Spleen, 10 mg/kg i.v., p < 0.05): -30% |
| 50 ± 20 | 120 | CC(C)(CN)c1c[nH]cn1 [compound 4, 4-(1,1-dimethyl 2-aminoethyl)-imidazole] | < 0.1% |  |
|  |  | NCCc1c[nH]cn1 [histamine, reference compound] |  | maximal inhibition of release of (3H) histamine (H3 autoreceptors [1]; slices of rat brain): approximately 60%; maximal inhibition of the stimulation by potassium of the synthesis of (3H) histamine (H3 autoreceptors [4]): approximately 70% |

| SMILES | EC50 (H3 autoreceptors [1]) [nM] | Activity relative to histamine (%) H3 receptors (H3 autoreceptors [1]; histamine = 100% (EC50 […] nM)) [%] | Activity relative to histamine (%) H1 /H2 receptors (H1 /H2 receptors) | also measured |
| --- | --- | --- | --- | --- |
| CC(C)(N)Cc1c[nH]cn1 [compound 2, 4-(2-methyl 2-aninopropyl)-imidazole] | 20 ± 10 |  | < 1% | Activity relative to histamine (%) H3 receptors (H3 autoreceptors [1]): 300% |
| NC1CC1c1c[nH]cn1 (stereo not shown) [compound 5, 2-(4-imidazolyl)-cyclopropylamine] | < 100 | > 60 | < 1% |  |
